{
  "source": "patent US8609332B2",
  "about": "“Assay” (Queen's University of Belfast, priority 2006, dated 2013)",
  "key": {"[1]": {"details": "at 50 μM; cited from earlier work"}, "[2]": {"system": "ser473 phosphorylated Akt", "test": "AKT phosphorylation immunoblot", "format": "cell-based, rat", "protocol": "FIG. 5C Immunodetection and LY290042-inhibition of phosphorylated Akt in parental R37, R37-CMV, R37-OPN and R37-RAN cells. 20 μg cell lysates were loaded onto a SDS 10% (W(W) polyacrylamide gel as follows: lane 1 R37, lane 2 R37-pBk-CMV; lane 3 R37-RAN, lane 4 R37-OPN; lane 5 R37-OPN treated with 50 μm LY290042 for 18 hr (R37-OPN/LY); and lane 6 R37-RAN treated with 50 μm LY290042 for 18 hr (R37-RAN/LY). Proteins were detected in immunoblots using specific antibodies to phosphoserine 473 AkT. Bands were quantified using densitometric analysis and quantified with respect to those of β-actin. The results were a representative sample of three experiments. The average fold increase for 3 different experiments for phosphorylated AkT on ser473 is: lane 1=1, lane 2=2.2±0.4, lane 3=22.5±0.7, lane 4=21.1±0.5, lane 5=0±0 and lane 6=0±0.\nThe R37, R37-CMV, R37-RAN and R37-OPN cells were harvested at 80% confluence from 7 cm dishes. The cell were lysed in 300 μl of 2× Loading buffer (20% glycerol (v/v), 4% SDS (w/v), 10% 2-mercaptoethanol (v/v), 126 mM Tris, pH 6.8 and coloured with bromophenol blue). The lysates were sonicated, boiled at 100° C. for 5 minutes and then centrifuged at 15000 rpm for 10 minutes. Proteins were resolved by 7.5% SDS-PAGE and immunoblofted for ser473 phosphorylated Akt.as previously (43)."}},
  "data": [
    {"smiles": "O=c1cc(N2CCOCC2)oc2c(-c3ccccc3)cccc12", "note": "[LY294002, 2-4(4-morpholinyl)-8-phenyl-4H-1-benzopyran-4-one]", "values": [
      {"measurement": "induction of apoptosis", "setting": "[1]", "result": "without inducing apoptosis"},
      {"measurement": "phosphorylated AkT on ser473, average fold increase (R37 = 1)", "setting": "[2]; R37-OPN cells treated with 50 μm for 18 hr (lane 5)", "result": "0±0", "unit": "fold"},
      {"measurement": "phosphorylated AkT on ser473, average fold increase (R37 = 1)", "setting": "[2]; R37-RAN cells treated with 50 μm for 18 hr (lane 6)", "result": "0±0", "unit": "fold"}
    ]}
  ]
}
